Experimental data published in patent US9556113B2, “Combination uses of dichloroacetate and oxamate, and their prodrugs, for cancer treatment” (The South Dakota Board of Regents, priority 2014, dated 2017).

Legend:
[1] = test system: HPV+E6E7 Ras tumor (E6/E7/Ras MOEs cells); assay: Tumor response to cisplatin/radiation therapy (CRT), HPV positive HNSCC mouse model; type: in vivo, C57Bl/6 mice; conditions: for tumor growth with CRT compared to DCA plus oxamate (FIG. 8A/19): prodrug 7.6 mg/mouse i.p. weekdays, control DCA 6 mg/mouse + oxamate 2 (2.2) mg/mouse, all with CRT
Description: FIG. 7 illustrates the effects of DCA plus oxamate on tumor growth (A) or on survival (B) with HPV+ model of HNSCC in wild-type C57Bl/6 mice. All mice received 3 rounds of cisplatin (0.132 mg/mouse) plus radiation (8 Gy/mouse) treatment (Tx) at weekly intervals starting […] after tumor initiation. Mice receiving DCA (6 mg/mouse) plus oxamate (15 mg/mouse) were treated every weekday, starting with the first chemoradiation treatment by i.p. injection.
FIG. 8 illustrates a comparison of prodrugs to DCA plus oxamate on tumor growth (A) or on survival (B) with HPV+ model of HNSCC in wild-type C57Bl/6 mice. All mice received 3 rounds of CRT [cisplatin (0.132 mg/mouse) plus radiation (8 Gy/mouse) treatment (Tx) at weekly intervals starting 11 days after tumor initiation]. Mice receiving DCA (6 mg/mouse) plus oxamate (2.2 mg/mouse) were treated every weekday starting with the first chemoradiation treatment by i.p. injection. Mice treated with AT-N4-001 or AT-N4-002 prodrugs (7.6 mg/mouse) were treated on the same schedule as mice treated with DCA+oxamate.
FIG. 18. The effects of DCA, oxamate, DCA plus oxamate on the responses of HPV+E6E7 Ras tumor to CRT. One million E6/E7/Ras MOEs cells were injected subcutaneously into the rear leg of wild-type C57Bl/6 mice. After 11 days, a treatment with DCA (6 mg/mouse) and oxamate (15 mg/mouse) were injected daily by i.p. on weekdays for the remainder of the experiment. All mice received three rounds of treatment with CRT (0.132 mg/mouse cisplatin and 8 Gy radiation, weekly starting at day 11). Tumor volume is mm^3.
FIG. 19 depicts the effects of DCA plus oxamate vs the effects of prodrug 1 or prodrug 2 on the responses of HPV+E6E7 Ras tumor to CRT. Tumors were initiated by injecting 0.5×10^6 E6/E7/Ras MOEs cells. After 11 days, a treatment with DCA (6 mg/mouse) plus oxamate (2 mg/mouse), or prodrug 1 (7.6 mg/mouse), or prodrug 2 (7.6 mg/mouse) was initiated daily by i.p. on weekdays. The doses of DCA and oxamate were equal molar equivalents as would be released from the prodrugs. All mice received three rounds of treatment with CRT (0.132 mg/mouse cisplatin and 8 Gy radiation, weekly starting at day 11). Tumor volume is in mm^3.
The effects of various treatments on tumor responses were carried out by examining whether the treatment could improve tumor's response to CRT with a HPV positive HNSCCs mouse model. CRT is a standard treatment for HPV-positive HNSCC in the clinic (46). […] Applicants also used this model to investigate the effects of lactate on CRT-induced immune-mediated cancer clearance (46) and DCA's effect on the tumor's response to CRT (unpublished data). The literature reported dosages of DCA and oxamate were used (6,23,52,53)(41).
To study the effects of the prodrugs on tumor growth in vivo, C57Bl/6 immune-competent mice implanted with E6/E7/Ras MOEs cells were used as described previously (46). All experiments were performed in accordance with institutional and national guidelines and regulations with the protocol approved by the Animal Care and Use Committee at Sanford Research. Briefly, 1×10^6 tumor HPV+HNSCC cells were injected into the right subcutaneous flank of syngeneic male C57Bl/6 mice. Eleven days after tumor initiation, treatment was initiated daily on weekdays by i.p. injection of vehicle, DCA, Oxamate, DCA+oxamate, prodrug 1, or prodrug 2. All mice received three rounds of treatment with cisplatin/radiation therapy (CRT: 0.132 mg/mouse cisplatin and 8 Gy radiation, weekly starting at day 11). Tumor dimensions were measured weekly to monitor growth. Mice with tumors reaching a volume of 3000 mm^3 or becoming substantially emaciated were euthanized.
To study the effects of the new prodrugs on tumor growth in vivo, C57Bl/6 immune-competent mice were used. Tumors were established on the right flank of the leg. After 11 days, treatment was initiated with daily i.p. injection of vehicle, AT-N4-001, or AT-N4-002. […]

[2] = Chemical stability (hydrolysis) in aqueous acetonitrile, HPLC; type: physicochemical; conditions: water:acetonitrile 1:1, ambient temperature, in 4 hours, 0.4 mg/mL
Description: FIG. 15 provides a graph of the hydrolysis of prodrug 1 (FIG. 15A) and prodrug 2 (FIG. 15B) in aqueous acetonitrile solution. Prodrug 1 or prodrug 2 (0.42 mg/mL) in aqueous acetonitrile (H2O:CH3CN=1:1) was stirred at ambient temperature. Aliquots were withdrawn and analyzed for the prodrug by HPLC as described in the experimental section.
Once the two prodrugs were obtained, their chemical stability and metabolic stability were determined. The chemical stability of prodrug 1 and prodrug 2 was determined in aqueous acetonitrile at ambient temperature. The prodrug (0.4 mg/mL) a mixture of water and acetonitrile (1:1) at ambient temperature. Aliquots were taken from the solution periodically and checked by HPLC for the presence of the prodrug. The HPLC analysis was carried out on a Beckman Coulter HPLC (System Gold) system, controlled by a system controller (32 Karat workstation with PC), equipped with a 125 gradient pumping module, a 508 autosampler with a sample cooling system, and a 168 photodiode array detector. The HPLC conditions employed an Apollo C18 column (250 mm×4.6 mm i.d., 5 μm) (Alltech, Deerfield, Ill.) and aqueous acetonitrile (50% with 0.1% TFA) as the mobile phase. The flow rate was 0.8 mL/min and the detection wavelength was 210 nm. Under the condition, the retention time for prodrugs 1 and 2 was 9.83 and 9.87 minutes respectively. […]

Compound | long-term survival (FIG. 8B) ([1]; CRT + 7.6 mg/mouse i.p.) | tumor growth with CRT compared to DCA plus oxamate (FIG. 8A/19) [1] | tumor growth with CRT compared to DCA plus oxamate (FIG. 8A/19) ([1]; listed as Prodrug 2) | hydrolysis of prodrug [2] | tumor growth with CRT compared to DCA plus oxamate (FIG. 8A/19) ([1]; listed as prodrug 1)
NC(=O)C(=O)OCC(COC(=O)C(Cl)Cl)OC(=O)C(Cl)Cl (stereo not shown) [AT-N4-002, 3-(2-amino-2-oxoacetoxy)propane-1,2-diyl bis(2,2-dichloroacetate)] | ~25% | reduced average tumor growth compared to the control during the entire experiment | more effective than DCA plus oxamate during the entire experiment | about 10% | –
NC(=O)C(=O)OC(COC(=O)C(Cl)Cl)COC(=O)C(Cl)Cl [AT-N4-001, 2-(2-Amino-2-oxoacetoxy)propane-1,3-diyl bis(2,2-dichloroacetate)] | – | initially reduced tumor growth compared to CRT+DCA+oxamate control, but this was not maintained over longer times | – | about 10% | about equally potent as that of the combination
